Source: patent US10681909B2, “Herbicidal triazoles” (FMC Corporation, priority 2014, dated 2020)

Assays:
barnyardgrass [1] = assay: Test A preemergence; type: in vivo, Echinochloa crus-galli; conditions: 0 to 100 scale (0 no effect, 100 complete control)
Summary of the method: (§1)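 Test chemicals, formulated in a surfactant-containing non-phytotoxic solvent mixture, are applied either as a directed soil spray to newly planted seeds or as a postemergence application to plants at the one- to two-leaf stage (2–10 cm). All plants grow in a loam soil and sand blend.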

crabgrass, large [2] = assay: Test A preemergence; type: in vivo, Digitaria sanguinalis; conditions: 0 to 100 scale (0 no effect, 100 complete control)
Excerpt: (§2) Seeds of plant species selected from barnyardgrass (Echinochloa crus-galli), crabgrass, large (large crabgrass, Digitaria sanguinalis), kochia (Kochia scoparia), ragweed (common ragweed, Ambrosia elatior), foxtail, giant (giant foxtail, Setaria faberii), morningglory (Ipomoea spp.), pigweed (Amaranthus retroflexus), velvetleaf (Abutilon theophrasti), ryegrass, Italian (Italian ryegrass, Lolium multiflorum), wheat (Triticum aestivum), and corn (Zea mays) were planted into a blend of loam soil and sand and treated preemergence with a directed soil spray using test chemicals formulated in a non-phytotoxic solvent mixture which included a surfactant. At the same time, plants selected from these crop and weed species and also blackgrass (Alopecurus myosuroides), and galium (catchweed bedstraw, Galium aparine), were planted in pots containing the same blend of loam soil and sand and treated with postemergence applications of test chemicals formulated in the same manner. Plants ranged in height from 2 to 10 cm and were in the one- to two-leaf stage for the postemergence treatment. […] A dash (-) response means no test result.

foxtail, giant [3] = assay: Test A preemergence; type: in vivo, Setaria faberii; conditions: 0 to 100 scale (0 no effect, 100 complete control)
Summary of the method: as §1

morningglory [4] = assay: Test A preemergence; type: in vivo, Ipomoea spp.; conditions: 0 to 100 scale (0 no effect, 100 complete control)
Excerpt: as §2

pigweed [5] = assay: Test A preemergence; type: in vivo, Amaranthus retroflexus; conditions: 0 to 100 scale (0 no effect, 100 complete control)
Summary of the method: as §1

velvetleaf [6] = assay: Test A preemergence; type: in vivo, Abutilon theophrasti; conditions: 0 to 100 scale (0 no effect, 100 complete control)
Excerpt: as §2

wheat [7] = assay: Test A preemergence; type: in vivo, Triticum aestivum; conditions: 0 to 100 scale (0 no effect, 100 complete control)
Excerpt: as §2

corn [8] = assay: Test A preemergence; type: in vivo, Zea mays; conditions: 0 to 100 scale (0 no effect, 100 complete control)
Excerpt: as §2

barnyardgrass [9] = assay: Test A postemergence; type: in vivo, Echinochloa crus-galli; conditions: 0 to 100 scale (0 no effect, 100 complete control), approx. 10 d
Summary of the method: as §1

crabgrass, large [10] = assay: Test A postemergence; type: in vivo, Digitaria sanguinalis; conditions: 0 to 100 scale (0 no effect, 100 complete control), approx. 10 d
Excerpt: as §2

foxtail, giant [11] = assay: Test A postemergence; type: in vivo, Setaria faberii; conditions: 0 to 100 scale (0 no effect, 100 complete control), approx. 10 d
Summary of the method: as §1

morningglory [12] = assay: Test A postemergence; type: in vivo, Ipomoea spp.; conditions: 0 to 100 scale (0 no effect, 100 complete control), approx. 10 d
Excerpt: as §2

pigweed [13] = assay: Test A postemergence; type: in vivo, Amaranthus retroflexus; conditions: 0 to 100 scale (0 no effect, 100 complete control), approx. 10 d
Summary of the method: as §1

velvetleaf [14] = assay: Test A postemergence; type: in vivo, Abutilon theophrasti; conditions: 0 to 100 scale (0 no effect, 100 complete control), approx. 10 d
Excerpt: as §2

wheat [15] = assay: Test A postemergence; type: in vivo, Triticum aestivum; conditions: 0 to 100 scale (0 no effect, 100 complete control), approx. 10 d
Summary of the method: as §1

corn [16] = assay: Test A postemergence; type: in vivo, Zea mays; conditions: 0 to 100 scale (0 no effect, 100 complete control), approx. 10 d
Summary of the method: as §1

rice = assay: Test B flooded paddy test; type: in vivo, Oryza sativa; conditions: 125 g ai/ha, applied to paddy water at 2-leaf stage, visual rating after 13 to 15 d, scale 0 (no effect) to 100 (complete control)
Excerpt: (§3) At time of treatment, test pots were flooded to 3 cm above the soil surface, treated by application of test compounds directly to the paddy water, and then maintained at that water depth for the duration of the test. Treated plants and controls were maintained in a greenhouse for 13 to 15 d, after which time all species were compared to controls and visually evaluated. […] A dash (-) response means no test result.

sedge, umbrella = assay: Test B flooded paddy test; type: in vivo, Cyperus difformis; conditions: 125 g ai/ha, applied to paddy water at 2-leaf stage, visual rating after 13 to 15 d, scale 0 (no effect) to 100 (complete control)
Excerpt: as §3

ducksalad = assay: Test B flooded paddy test; type: in vivo, Heteranthera limosa; conditions: 125 g ai/ha, applied to paddy water at 2-leaf stage, visual rating after 13 to 15 d, scale 0 (no effect) to 100 (complete control)
Excerpt: as §3

barnyardgrass [17] = assay: Test B flooded paddy test; type: in vivo, Echinochloa crus-galli; conditions: 125 g ai/ha, applied to paddy water at 2-leaf stage, visual rating after 13 to 15 d, scale 0 (no effect) to 100 (complete control)
Excerpt: as §3

SMILES: CCCn1nc(-c2ccc(F)cc2)nc1C(O)c1ccnc(C(F)(F)F)c1 (stereo not drawn) [Compound 16]
- Plant response rating, Barnyardgrass (barnyardgrass [1]; 125 g ai/ha): 0
- Plant response rating, Barnyardgrass (barnyardgrass [1]; 500 g ai/ha, approx. 10 d): 80
- Plant response rating, Crabgrass, Large (crabgrass, large [2]; 125 g ai/ha): 60
- Plant response rating, Crabgrass, Large (crabgrass, large [2]; 500 g ai/ha, approx. 10 d): 100
- Plant response rating, Foxtail, Giant (foxtail, giant [3]; 125 g ai/ha): 50
- Plant response rating, Foxtail, Giant (foxtail, giant [3]; 500 g ai/ha, approx. 10 d): 90
- Plant response rating, Morningglory (morningglory [4]; 125 g ai/ha): 0
- Plant response rating, Morningglory (morningglory [4]; 500 g ai/ha, approx. 10 d): 20
- Plant response rating, Pigweed (pigweed [5]; 125 g ai/ha): 80
- Plant response rating, Pigweed (pigweed [5]; 500 g ai/ha, approx. 10 d): 100
- Plant response rating, Velvetleaf (velvetleaf [6]; 125 g ai/ha): 0
- Plant response rating, Velvetleaf (velvetleaf [6]; 500 g ai/ha, approx. 10 d): 20
- Plant response rating, Wheat (wheat [7]; 125 g ai/ha): 0
- Plant response rating, Wheat (wheat [7]; 500 g ai/ha, approx. 10 d): 0
- Plant response rating, Corn (corn [8]; 125 g ai/ha): 0
- Plant response rating, Corn (corn [8]; 500 g ai/ha, approx. 10 d): 0
- Plant response rating, Barnyardgrass (barnyardgrass [9]; 125 g ai/ha): 0
- Plant response rating, Barnyardgrass (barnyardgrass [9]; 500 g ai/ha): 70
- Plant response rating, Crabgrass, Large (crabgrass, large [10]; 125 g ai/ha): 20
- Plant response rating, Crabgrass, Large (crabgrass, large [10]; 500 g ai/ha): 70
- Plant response rating, Foxtail, Giant (foxtail, giant [11]; 125 g ai/ha): 30
- Plant response rating, Foxtail, Giant (foxtail, giant [11]; 500 g ai/ha): 70
- Plant response rating, Morningglory (morningglory [12]; 125 g ai/ha): 40
- Plant response rating, Morningglory (morningglory [12]; 500 g ai/ha): 40
- Plant response rating, Pigweed (pigweed [13]; 125 g ai/ha): 100
- Plant response rating, Pigweed (pigweed [13]; 500 g ai/ha): 100
- Plant response rating, Velvetleaf (velvetleaf [14]; 125 g ai/ha): 0
- Plant response rating, Velvetleaf (velvetleaf [14]; 500 g ai/ha): 40
- Plant response rating, Wheat (wheat [15]; 125 g ai/ha): 10
- Plant response rating, Wheat (wheat [15]; 500 g ai/ha): 30
- Plant response rating, Corn (corn [16]; 125 g ai/ha): 10
- Plant response rating, Corn (corn [16]; 500 g ai/ha): 50
- Plant response rating, Rice, Flood (rice): 0
- Plant response rating, Sedge, Umbrella, Flood (sedge, umbrella): 0
- Plant response rating, Ducksalad, Flood (ducksalad): 0
- Plant response rating, Barnyardgrass, Flood (barnyardgrass [17]): 0

SMILES: CCn1nc(-c2ccc(F)cc2)nc1Cc1ccnc(C(F)(F)F)c1 [Compound 18]
- Plant response rating, Barnyardgrass (barnyardgrass [1]; 125 g ai/ha): 10
- Plant response rating, Barnyardgrass (barnyardgrass [1]; 500 g ai/ha, approx. 10 d): 60
- Plant response rating, Crabgrass, Large (crabgrass, large [2]; 125 g ai/ha): 90
- Plant response rating, Crabgrass, Large (crabgrass, large [2]; 500 g ai/ha, approx. 10 d): 100
- Plant response rating, Foxtail, Giant (foxtail, giant [3]; 125 g ai/ha): 90
- Plant response rating, Foxtail, Giant (foxtail, giant [3]; 500 g ai/ha, approx. 10 d): 100
- Plant response rating, Morningglory (morningglory [4]; 125 g ai/ha): 10
- Plant response rating, Morningglory (morningglory [4]; 500 g ai/ha, approx. 10 d): 40
- Plant response rating, Pigweed (pigweed [5]; 125 g ai/ha): 100
- Plant response rating, Pigweed (pigweed [5]; 500 g ai/ha, approx. 10 d): 100
- Plant response rating, Velvetleaf (velvetleaf [6]; 125 g ai/ha): 10
- Plant response rating, Velvetleaf (velvetleaf [6]; 500 g ai/ha, approx. 10 d): 70
- Plant response rating, Wheat (wheat [7]; 125 g ai/ha): 0
- Plant response rating, Wheat (wheat [7]; 500 g ai/ha, approx. 10 d): 0
- Plant response rating, Corn (corn [8]; 125 g ai/ha): 0
- Plant response rating, Corn (corn [8]; 500 g ai/ha, approx. 10 d): 0
- Plant response rating, Barnyardgrass (barnyardgrass [9]; 125 g ai/ha): 30
- Plant response rating, Barnyardgrass (barnyardgrass [9]; 500 g ai/ha): 60
- Plant response rating, Crabgrass, Large (crabgrass, large [10]; 125 g ai/ha): 60
- Plant response rating, Crabgrass, Large (crabgrass, large [10]; 500 g ai/ha): 90
- Plant response rating, Foxtail, Giant (foxtail, giant [11]; 125 g ai/ha): 50
- Plant response rating, Foxtail, Giant (foxtail, giant [11]; 500 g ai/ha): 90
- Plant response rating, Morningglory (morningglory [12]; 125 g ai/ha): 50
- Plant response rating, Morningglory (morningglory [12]; 500 g ai/ha): 100
- Plant response rating, Pigweed (pigweed [13]; 125 g ai/ha): 100
- Plant response rating, Pigweed (pigweed [13]; 500 g ai/ha): 100
- Plant response rating, Velvetleaf (velvetleaf [14]; 125 g ai/ha): 30
- Plant response rating, Velvetleaf (velvetleaf [14]; 500 g ai/ha): 80
- Plant response rating, Wheat (wheat [15]; 125 g ai/ha): 20
- Plant response rating, Wheat (wheat [15]; 500 g ai/ha): 30
- Plant response rating, Corn (corn [16]; 125 g ai/ha): 30
- Plant response rating, Corn (corn [16]; 500 g ai/ha): 40
- Plant response rating, Rice, Flood (rice): 0
- Plant response rating, Sedge, Umbrella, Flood (sedge, umbrella): 70
- Plant response rating, Ducksalad, Flood (ducksalad): 70
- Plant response rating, Barnyardgrass, Flood (barnyardgrass [17]): 0

SMILES: CCCn1nc(-c2ccc(F)cc2)nc1C(=O)c1ccnc(C(F)(F)F)c1 [Compound 20]
- Plant response rating, Barnyardgrass (barnyardgrass [1]; 125 g ai/ha): 0
- Plant response rating, Barnyardgrass (barnyardgrass [1]; 500 g ai/ha, approx. 10 d): 80
- Plant response rating, Crabgrass, Large (crabgrass, large [2]; 125 g ai/ha): 20
- Plant response rating, Crabgrass, Large (crabgrass, large [2]; 500 g ai/ha, approx. 10 d): 100
- Plant response rating, Foxtail, Giant (foxtail, giant [3]; 125 g ai/ha): 80
- Plant response rating, Foxtail, Giant (foxtail, giant [3]; 500 g ai/ha, approx. 10 d): 90
- Plant response rating, Morningglory (morningglory [4]; 125 g ai/ha): 0
- Plant response rating, Morningglory (morningglory [4]; 500 g ai/ha, approx. 10 d): 20
- Plant response rating, Pigweed (pigweed [5]; 125 g ai/ha): 20
- Plant response rating, Pigweed (pigweed [5]; 500 g ai/ha, approx. 10 d): 90
- Plant response rating, Velvetleaf (velvetleaf [6]; 125 g ai/ha): 0
- Plant response rating, Velvetleaf (velvetleaf [6]; 500 g ai/ha, approx. 10 d): 0
- Plant response rating, Wheat (wheat [7]; 125 g ai/ha): 0
- Plant response rating, Wheat (wheat [7]; 500 g ai/ha, approx. 10 d): 20
- Plant response rating, Corn (corn [8]; 125 g ai/ha): 0
- Plant response rating, Corn (corn [8]; 500 g ai/ha, approx. 10 d): 0
- Plant response rating, Barnyardgrass (barnyardgrass [9]; 125 g ai/ha): 0
- Plant response rating, Barnyardgrass (barnyardgrass [9]; 500 g ai/ha): 20
- Plant response rating, Crabgrass, Large (crabgrass, large [10]; 125 g ai/ha): 20
- Plant response rating, Crabgrass, Large (crabgrass, large [10]; 500 g ai/ha): 10
- Plant response rating, Foxtail, Giant (foxtail, giant [11]; 125 g ai/ha): 10
- Plant response rating, Foxtail, Giant (foxtail, giant [11]; 500 g ai/ha): 10
- Plant response rating, Morningglory (morningglory [12]; 125 g ai/ha): 10
- Plant response rating, Morningglory (morningglory [12]; 500 g ai/ha): 10
- Plant response rating, Pigweed (pigweed [13]; 125 g ai/ha): 40
- Plant response rating, Pigweed (pigweed [13]; 500 g ai/ha): 90
- Plant response rating, Velvetleaf (velvetleaf [14]; 125 g ai/ha): 0
- Plant response rating, Velvetleaf (velvetleaf [14]; 500 g ai/ha): 40
- Plant response rating, Wheat (wheat [15]; 125 g ai/ha): 20
- Plant response rating, Wheat (wheat [15]; 500 g ai/ha): 30
- Plant response rating, Corn (corn [16]; 125 g ai/ha): 20
- Plant response rating, Corn (corn [16]; 500 g ai/ha): 20
- Plant response rating, Rice, Flood (rice): 0
- Plant response rating, Sedge, Umbrella, Flood (sedge, umbrella): 0
- Plant response rating, Ducksalad, Flood (ducksalad): 0
- Plant response rating, Barnyardgrass, Flood (barnyardgrass [17]): 0
